In PubChem BioAssay AID1963966 (Molecular Pharmacology Branch, DTP, NCI, 2024):

Test system: 935938-334-R-J1-PDC spheroids with HUVEC/MSC, viability
Experiment: Anticancer human tumor 935938-334-R-J1-PDC patient-derived small intestine adenocarcinoma cell line growth inhibition [PI3K]
Settings: for IC50: curve of first compound; for viability, T/C: stronger effect = lower value
Procedure, shortened: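 Combination activity was assessed by viability in multicellular tumor spheroids carrying HUVEC and MSC components. Agents were tested with PI3K inhibitors from a Cmax-based top dose (or 10 microM) downward in half-log increments.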
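Also: compound exposure lasted seven days before viability was read.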
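For viability, T/C in this document: percent of vehicle DMSO treated spheroid viability so 100% = untreated.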

## CCN1CCN(Cc2ccc(Nc3ncc(F)c(-c4cc(F)c5nc(C)n(C(C)C)c5c4)n3)nc2)CC1 + Cc1nc(NC(=O)N2CCCC2C(N)=O)sc1-c1ccnc(C(C)(C)C(F)(F)F)c1
Second compound 0.0316 µM
  IC50: 148 nM
Second compound 0.1 µM
  IC50: 43.2 nM
Second compound 0.316 µM
  IC50: 55.5 nM
Second compound 1 µM
  IC50: 18.8 nM
Second compound 3.16 µM
  IC50: < 3.16 nM
Second compound 10 µM
  IC50: < 3.16 nM
Second compound 0.0316 µM, first compound 0.00316 µM
  viability, T/C: 88.8%
Second compound 0.0316 µM, first compound 0.01 µM
  viability, T/C: 68.9%
Second compound 0.0316 µM, first compound 0.0316 µM
  viability, T/C: 64.3%
Second compound 0.0316 µM, first compound 0.1 µM
  viability, T/C: 57.2%
Second compound 0.0316 µM, first compound 0.316 µM
  viability, T/C: 43%
Second compound 0.0316 µM, first compound 1 µM
  viability, T/C: 32.4%
Second compound 0.1 µM, first compound 0.00316 µM
  viability, T/C: 94.5%
Second compound 0.1 µM, first compound 0.01 µM
  viability, T/C: 92.2%
Second compound 0.1 µM, first compound 0.0316 µM
  viability, T/C: 53.3%
Second compound 0.1 µM, first compound 0.1 µM
  viability, T/C: 45.6%
Second compound 0.1 µM, first compound 0.316 µM
  viability, T/C: 37.5%
Second compound 0.1 µM, first compound 1 µM
  viability, T/C: 35.4%
Second compound 0.316 µM, first compound 0.00316 µM
  viability, T/C: 86.6%
Second compound 0.316 µM, first compound 0.01 µM
  viability, T/C: 71.4%
Second compound 0.316 µM, first compound 0.0316 µM
  viability, T/C: 52.4%
Second compound 0.316 µM, first compound 0.1 µM
  viability, T/C: 44.9%
Second compound 0.316 µM, first compound 0.316 µM
  viability, T/C: 41.2%
Second compound 0.316 µM, first compound 1 µM
  viability, T/C: 32.4%
Second compound 1 µM, first compound 0.00316 µM
  viability, T/C: 69.7%
Second compound 1 µM, first compound 0.01 µM
  viability, T/C: 59.2%
Second compound 1 µM, first compound 0.0316 µM
  viability, T/C: 40.8%
Second compound 1 µM, first compound 0.1 µM
  viability, T/C: 37.7%
Second compound 1 µM, first compound 0.316 µM
  viability, T/C: 26.1%
Second compound 1 µM, first compound 1 µM
  viability, T/C: 28.3%
Second compound 3.16 µM, first compound 0.00316 µM
  viability, T/C: 41.5%
Second compound 3.16 µM, first compound 0.01 µM
  viability, T/C: 44.6%
Second compound 3.16 µM, first compound 0.0316 µM
  viability, T/C: 42.6%
Second compound 3.16 µM, first compound 0.1 µM
  viability, T/C: 30.7%
Second compound 3.16 µM, first compound 0.316 µM
  viability, T/C: 25.7%
Second compound 3.16 µM, first compound 1 µM
  viability, T/C: 30.1%
Second compound 10 µM, first compound 0.00316 µM
  viability, T/C: 39.2%
Second compound 10 µM, first compound 0.01 µM
  viability, T/C: 44.7%
Second compound 10 µM, first compound 0.0316 µM
  viability, T/C: 34.1%
Second compound 10 µM, first compound 0.1 µM
  viability, T/C: 26.2%
Second compound 10 µM, first compound 0.316 µM
  viability, T/C: 35%
Second compound 10 µM, first compound 1 µM
  viability, T/C: 28.5%
